pEC50, pIC50: −log10 of the molar value.
Columns and labels:
[1] = molecular target: recombinant human wild type LRRK2 (Homo sapiens, UniProt Q5S007); assay: TR-FRET-based kinase activity assay, wild type LRRK2; type: biochemical; settings: read-out: IC50, human wild type LRRK2 activity, ATP 100 μM
[2] = system: LRRK2 G2019S-transfected human cortical neurons; assay: Neurite morphology assay in primary human cortical neurons; settings: for pEC50: read-out: EC50, attenuation of G2019S LRRK2-induced human neuronal injury
Pharmacokinetics studies = settings: in vivo
[3] = system: rat primary cortical neurons transfected with LRRK2 R1441C; type: cell-based; settings: at higher concentrations
[4] = system: rat primary cortical neurons transfected with LRRK2 G2019S; type: cell-based
human cortical neurons = assay: AlamarBlue cytotoxicity assay in primary human cortical neurons; type: cell-based; settings: for Concentration at which overt cytotoxicity was seen: human cortical neurons
G2019S LRRK2 = G2019S LRRK2 (Homo sapiens, UniProt Q5S007, G2019S); assay: TR-FRET-based kinase activity assay, G2019S LRRK2; type: biochemical; settings: read-out: IC50, G2019S LRRK2 activity, ATP 100 μM
Chain of G2019S LRRK2 (Q5S007 whole entry G2019S): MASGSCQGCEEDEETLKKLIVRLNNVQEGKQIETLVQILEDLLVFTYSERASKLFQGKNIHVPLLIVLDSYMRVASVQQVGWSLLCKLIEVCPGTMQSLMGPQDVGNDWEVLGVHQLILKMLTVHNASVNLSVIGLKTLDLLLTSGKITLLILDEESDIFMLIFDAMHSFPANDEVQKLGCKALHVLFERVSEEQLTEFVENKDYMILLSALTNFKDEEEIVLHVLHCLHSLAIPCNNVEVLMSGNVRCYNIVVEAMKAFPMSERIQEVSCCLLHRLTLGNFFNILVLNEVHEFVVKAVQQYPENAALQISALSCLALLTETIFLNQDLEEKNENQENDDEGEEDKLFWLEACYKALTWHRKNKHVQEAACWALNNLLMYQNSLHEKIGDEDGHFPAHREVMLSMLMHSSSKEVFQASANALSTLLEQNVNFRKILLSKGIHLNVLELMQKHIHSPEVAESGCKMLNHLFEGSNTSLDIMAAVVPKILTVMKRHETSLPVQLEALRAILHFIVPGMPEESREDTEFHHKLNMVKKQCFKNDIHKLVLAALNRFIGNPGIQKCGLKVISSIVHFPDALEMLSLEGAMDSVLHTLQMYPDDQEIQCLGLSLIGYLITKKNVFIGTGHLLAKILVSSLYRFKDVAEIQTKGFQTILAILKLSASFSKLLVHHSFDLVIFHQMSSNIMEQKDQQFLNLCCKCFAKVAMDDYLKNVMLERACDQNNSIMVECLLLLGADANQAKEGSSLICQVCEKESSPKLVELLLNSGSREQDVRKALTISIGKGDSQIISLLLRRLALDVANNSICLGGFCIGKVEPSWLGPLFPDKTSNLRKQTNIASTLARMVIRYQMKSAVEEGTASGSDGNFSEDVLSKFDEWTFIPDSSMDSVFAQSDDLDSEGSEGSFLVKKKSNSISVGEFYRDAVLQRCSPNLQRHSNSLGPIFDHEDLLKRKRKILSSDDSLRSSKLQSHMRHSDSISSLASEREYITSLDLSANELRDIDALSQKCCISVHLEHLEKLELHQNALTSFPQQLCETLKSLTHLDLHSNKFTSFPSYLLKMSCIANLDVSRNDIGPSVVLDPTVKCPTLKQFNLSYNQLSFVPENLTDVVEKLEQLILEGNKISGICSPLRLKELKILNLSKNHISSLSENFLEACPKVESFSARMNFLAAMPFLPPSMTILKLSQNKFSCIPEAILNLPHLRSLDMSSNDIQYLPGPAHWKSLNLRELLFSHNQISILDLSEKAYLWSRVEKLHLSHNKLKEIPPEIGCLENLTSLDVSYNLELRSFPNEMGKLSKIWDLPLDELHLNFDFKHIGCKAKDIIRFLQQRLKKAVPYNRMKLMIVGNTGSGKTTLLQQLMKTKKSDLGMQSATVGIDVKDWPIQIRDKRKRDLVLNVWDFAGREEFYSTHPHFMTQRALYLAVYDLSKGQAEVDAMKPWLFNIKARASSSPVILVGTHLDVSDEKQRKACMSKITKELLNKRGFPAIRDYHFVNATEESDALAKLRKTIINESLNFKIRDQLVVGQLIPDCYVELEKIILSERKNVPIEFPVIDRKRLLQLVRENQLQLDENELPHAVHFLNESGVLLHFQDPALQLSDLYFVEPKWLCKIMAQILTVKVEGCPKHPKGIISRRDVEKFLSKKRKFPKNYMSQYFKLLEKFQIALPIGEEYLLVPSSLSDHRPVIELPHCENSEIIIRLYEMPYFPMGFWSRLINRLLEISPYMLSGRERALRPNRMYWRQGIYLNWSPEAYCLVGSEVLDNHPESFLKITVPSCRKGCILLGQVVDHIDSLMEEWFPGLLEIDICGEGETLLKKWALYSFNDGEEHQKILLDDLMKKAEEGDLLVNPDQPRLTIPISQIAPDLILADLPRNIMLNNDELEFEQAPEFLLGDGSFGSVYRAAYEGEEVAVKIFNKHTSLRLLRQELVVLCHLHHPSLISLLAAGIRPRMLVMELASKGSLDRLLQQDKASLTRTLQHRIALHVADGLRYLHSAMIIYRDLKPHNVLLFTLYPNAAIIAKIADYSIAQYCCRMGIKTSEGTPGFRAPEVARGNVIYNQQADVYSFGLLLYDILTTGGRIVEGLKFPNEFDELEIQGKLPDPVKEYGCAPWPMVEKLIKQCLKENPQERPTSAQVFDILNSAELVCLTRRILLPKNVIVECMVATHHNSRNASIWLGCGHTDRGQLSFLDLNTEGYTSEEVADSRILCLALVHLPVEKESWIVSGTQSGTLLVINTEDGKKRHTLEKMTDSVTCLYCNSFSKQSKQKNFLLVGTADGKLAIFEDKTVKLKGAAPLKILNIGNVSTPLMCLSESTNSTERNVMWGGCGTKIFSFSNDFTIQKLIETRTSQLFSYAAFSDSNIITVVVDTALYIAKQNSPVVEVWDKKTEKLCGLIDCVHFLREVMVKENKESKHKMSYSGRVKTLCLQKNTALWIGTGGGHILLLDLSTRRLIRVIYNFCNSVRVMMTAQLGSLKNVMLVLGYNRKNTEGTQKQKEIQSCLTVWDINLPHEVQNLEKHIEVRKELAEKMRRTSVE

[5] = molecular target: mouse LRRK2 (mouse kidney lysate) (Mus musculus, UniProt Q5S006); assay: Competition-binding assay with la-S7 matrix; settings: concentrations as high as 100 μM tested; 5 mg/mL protein
Chain of mouse LRRK2 (mouse kidney lysate) (Q5S006 1879-2146 limits assumed): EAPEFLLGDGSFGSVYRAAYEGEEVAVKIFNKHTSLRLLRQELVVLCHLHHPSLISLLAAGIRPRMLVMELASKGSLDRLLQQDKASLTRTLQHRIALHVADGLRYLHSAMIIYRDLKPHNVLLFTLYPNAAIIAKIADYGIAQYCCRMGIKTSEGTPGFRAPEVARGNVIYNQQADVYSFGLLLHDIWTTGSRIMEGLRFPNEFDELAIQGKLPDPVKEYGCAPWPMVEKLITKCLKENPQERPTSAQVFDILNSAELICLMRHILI

[6] = molecular target: LRRK2 (human K562 extracts) (Homo sapiens, UniProt Q5S007); assay: la-S7 binding assay in human K562 extracts; settings: concentrations as high as 100 μM tested; 5 mg/mL protein
Chain of LRRK2 (human K562 extracts) (Q5S007 whole entry): as the sequence (Q5S007 whole entry G2019S) above, with S2019G counted along it

Chain of recombinant human wild type LRRK2 (Q5S007 whole entry): as the sequence (Q5S007 whole entry G2019S) above, with S2019G counted along it

IC50 in la-S7 binding assay, mouse kidney extracts [5]	IC50 in la-S7 binding assay, human K562 extracts [6]	Structure (SMILES)	pIC50 [1]	Concentration fully reversing G2019S LRRK2-induced injury to wild-type levels [2] [nM]	pEC50 [2]	Brain penetration (Pharmacokinetics studies)	Clearance (Pharmacokinetics studies) [mL/min/kg]	Volume of distribution (Pharmacokinetics studies) [L/kg]	Block of R1441C-induced toxicity [3]	Block of G2019S LRRK2-induced toxicity ([4]; at higher concentrations)	pEC50 ([4]; read-out: EC50, attenuation of G2019S LRRK2-induced neuronal injury and death, primary rodent cortical neurons)	Concentration at which overt cytotoxicity was seen (human cortical neurons) [nM]	Concentrations at which no cytotoxicity was caused (human cortical neurons; seven-day treatment in culture)	pIC50 (G2019S LRRK2)
		COc1cc(N2CCOCC2)ccc1Nc1ncc(F)c(Nc2ccccc2NS(C)(=O)=O)n1 [CZC-25146]	8.32	8	~8.40	~ 4%	38.3	5.4	completely blocked	completely blocked	~7.00	5000	below 5 μM	8.16
		COc1cc(N2CCOCC2)ccc1Nc1ncc(Cl)c(Nc2ccccc2NS(C)(=O)=O)n1 [CZC-54252]	8.89	1.6	~9.00	~ 4%						≥ 1000		8.73
no valid IC50s	no valid IC50s	O=C1Nc2ccc(I)cc2/C1=C/c1cc(Br)c(O)c(Br)c1 [GW-5074]												

— paper PMC3688284 (ACS chemical biology, 2011)
